Experimental findings from article PMC3951351 (Biochemistry, 2009) are described below.

The target in this test is T1, MreB (MreB1) (Thermotoga maritima, UniProt Q9WZ57).
T1 sequence (Q9WZ57 1-336): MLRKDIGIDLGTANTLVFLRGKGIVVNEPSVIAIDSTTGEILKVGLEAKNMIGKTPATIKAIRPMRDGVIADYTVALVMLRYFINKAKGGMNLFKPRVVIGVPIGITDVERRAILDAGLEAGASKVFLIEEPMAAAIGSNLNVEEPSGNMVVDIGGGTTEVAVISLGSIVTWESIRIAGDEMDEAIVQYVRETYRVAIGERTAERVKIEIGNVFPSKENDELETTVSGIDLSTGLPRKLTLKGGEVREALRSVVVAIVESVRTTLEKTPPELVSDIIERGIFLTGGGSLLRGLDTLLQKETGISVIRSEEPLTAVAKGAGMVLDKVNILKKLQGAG
Description: STD NMR titration. The format is binding.

The Kd is a measure of binding affinity in units of concentration. Read a high Kd as lower affinity. As for `N=C(N)SCc1ccc(Cl)c(Cl)c1` [A22, S-(3,4-dichlorobenzyl)isothiourea], the dissociation constant (Kd) is 1.32 ± 0.14 µM.
